Test results published in patent publication US20030100549A1, “Inhibitors of c-Jun N-terminal kinases (JNK)” (priority 1999, published 2003).

The compounds below were run against T1, activated JNK3 (Homo sapiens, UniProt P53779) (assay: JNK3 inhibition, spectrophotometric coupled-enzyme assay). Conditions: activated JNK3 10 nM, 10 μM ATP, 200 μM EGF receptor peptide, 30° C.
T1 construct: One such construct encodes amino acid residues Ser40-Glu402 of JNK3α1 and is preceded by Met and Gly residues; Met-Gly (initiator Met plus Gly added for the NcoI site) (N); made in house; host or cells: E. coli BL21 (DE3)
T1 sequence (P53779 40-402): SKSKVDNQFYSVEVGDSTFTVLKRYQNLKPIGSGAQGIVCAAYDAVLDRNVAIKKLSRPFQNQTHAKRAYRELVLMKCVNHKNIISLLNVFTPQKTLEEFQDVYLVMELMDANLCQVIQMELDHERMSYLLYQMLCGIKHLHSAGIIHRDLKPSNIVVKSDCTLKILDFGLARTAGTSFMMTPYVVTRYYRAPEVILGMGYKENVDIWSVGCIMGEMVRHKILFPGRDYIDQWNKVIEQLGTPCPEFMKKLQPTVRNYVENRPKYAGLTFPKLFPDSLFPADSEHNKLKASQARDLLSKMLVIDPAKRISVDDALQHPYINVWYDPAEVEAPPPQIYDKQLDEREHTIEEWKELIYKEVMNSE
Type: biochemical
Source text: A BLAST search of the EST database using the published JNK3α1 cDNA as a query identified an EST clone (#632588) that contained the entire coding sequence for human JNK3α1. Polymerase chain reactions (PCR) using pfu polymerase (Strategene) were used to introduce restriction sites into the cDNA for cloning into the pET-15B expression vector at the NcoI and BamHI sites. The protein was expressed in E. coli. Due to the poor solubility of the expressed full-length protein (Met 1-Gln 422), an N-terminally truncated protein starting at Ser residue at position 40 (Ser 40) was produced. This truncation corresponds to Ser 2 of JNK1 and JNK2 proteins, and is preceded by a methionine (initiation) and a glycine residue. The glycine residue was added in order to introduce an NcoI site for cloning into the expression vector. In addition, systematic C-terminal truncations were performed by PCR to identify a construct that give rise to diffraction-quality crystals. One such construct encodes amino acid residues Ser40-Glu402 of JNK3α1 and is preceded by Met and Gly residues.
5 mg of JNK3 was diluted to 0.5 mg/ml in 50 mM HEPES buffer, pH 7.5, containing 100 mM NaCl, 5 mM DTT, 20 mM MgCl2 and 1 mM ATP. GST-MKK7(DD) was added at a molar ratio of 1:2.5 GST-MKK7:JNK3. After incubation for 30 minutes at 25° C., the reaction mixture was concentrated 5-fold by ultrafiltration in a Centriprep-30 (Amicon, Beverly, Mass.), diluted to 10 ml and an additional 1 mM ATP added. This procedure was repeated three times to remove ADP and replenish ATP. The final addition of ATP was 5 mM and the mixture incubated overnight at 4° C.
The activated JNK3/GST-MKK7(DD) reaction mixture was exchanged into 50 mM HEPES buffer, pH 7.5, containing 5 mM DTT and 5% glycerol (w/v) by dialysis or ultrafiltration. The reaction mixture was adjusted to 1.1 M potassium phosphate, pH 7.5, and purified by hydrophobic interaction chromatography (at 25° C.) using a Rainin Hydropore column. […] Activated JNK3 (i.e. doubly phosphorylated JNK3) was stored at −70° C. at 0.25-1 mg/ml.
Compounds were assayed for the inhibition of JNK3 by a spectrophotometric coupled-enzyme assay. In this assay, a fixed concentration of activated JNK3 (10 nM) was incubated with various concentrations of a potential inhibitor dissolved in DMSO for 10 minutes at 30° C. in a buffer containing 0.1 M HEPES buffer, pH 7.5, containing 10 mM MgCl2, 2.5 mM phosphoenolpyruvate, 200 μM NADH, 150 μg/mL pyruvate kinase, 50 μg/mL lactate dehydrogenase, and 200 μM EGF receptor peptide. The EGF receptor peptide has the sequence […], and is a phosphoryl acceptor in the JNK3-catalyzed kinase reaction. The reaction was initiated by the addition of 10 μM ATP and the assay plate is inserted into the spectrophotometer's assay plate compartment that was maintained at 30° C. The decrease of absorbance at 340 nm was monitored as a function of time. The rate data as a function of inhibitor concentration was fitted to competitive inhibition kinetic model to determine the Ki.

Row | Ki | Structure (SMILES)
1 | < 1 µM | O=C(Nc1ccccc1)c1c(Nc2ccccc2)[nH]c(=O)[nH]c1=O [Cmpd 1]
2 | ≥ 1 µM | O=C(Nc1ccccn1)c1c(Nc2ccccc2)[nH]c(=O)[nH]c1=O [Cmpd 2, 2,4-Dioxo-6-phenylamino-1,2,3,4-tetrahydro-pyrimidine-5-carboxylic acid pyridin-2-ylamide]
3 | ≥ 1 µM | O=C(Nc1ccc(F)cc1)c1c(Nc2ccccc2)[nH]c(=O)[nH]c1=O [Cmpd 3, 2,4-dioxo-6-phenylamino-1,2,3,4-tetrahydro-pyrimidine-5-carboxylic acid (4-fluoro-phenyl)-amide]
4 | ≥ 1 µM | Cc1cccc(NC(=O)c2c(Nc3ccccc3)[nH]c(=O)[nH]c2=O)c1 [Cmpd 4]
5 | ≥ 1 µM | Cc1ccccc1Nc1[nH]c(=O)[nH]c(=O)c1C(=O)Nc1ccccc1 [Cmpd 5]
6 | ≥ 1 µM | Cc1ccccc1Nc1[nH]c(=O)[nH]c(=O)c1C(=O)Nc1ccc(F)cc1 [Cmpd 6]
7 | ≥ 1 µM | Cc1cccc(NC(=O)c2c(Nc3ccccc3C)[nH]c(=O)[nH]c2=O)c1 [Cmpd 7]
8 | ≥ 1 µM | O=C(Nc1ccccc1)c1c(Nc2ccc(F)cc2)[nH]c(=O)[nH]c1=O [Cmpd 8]
9 | ≥ 1 µM | O=C(Nc1ccc(F)cc1)c1c(Nc2ccc(F)cc2)[nH]c(=O)[nH]c1=O [Cmpd 9]
10 | ≥ 1 µM | Cc1cccc(NC(=O)c2c(Nc3ccc(F)cc3)[nH]c(=O)[nH]c2=O)c1 [Cmpd 10]
